Patent publication US5654426A, “Ecteinascidins” (priority 1995, dated 1997)
In brackets after ≈: the same amount, converted by molar mass.

Tests used:
DNA = conditions: Lown et al. 1982; Zmijewski et al. 1985; cited from earlier work
[1] = test system: variety of tumor models in mice; assay: In vivo activity against several tumor models in mice
L1210 leukemia cells = assay: Inhibition of L1210 leukemia cells in plate assays; assay type: cell-based; conditions: Mus musculus
Method: Et's 722 (Compound 6) and 736 (Compound 7)inhibit L1210 leukemia cells to the extent of 90% in plate assays at 2.5 and 5.0 μg/ml, respectively.

M-5076 ovarian sarcoma = assay: In vivo antitumor activity in mice vs. M-5076 ovarian sarcoma
[2] = test system: MX-1 human mammary carcinoma xenograft; assay: In vivo antitumor activity in mice vs. MX-1 human mammary carcinoma xenograft
P-388 leukemia cells = assay: In vivo antitumor activity in mice vs. P-388 leukemia; conditions: for T/C vs. P-388 / survivors, P-388: mice
[3] = test system: LX-1 human lung carcinoma xenograft; assay: In vivo antitumor activity in mice vs. LX-1 human lung carcinoma xenograft
Lewis lung carcinoma = assay: In vivo antitumor activity in mice vs. Lewis lung carcinoma
B-16 melanoma = assay: In vivo antitumor activity in mice vs. B-16 melanoma
[4] = test system: P-388 murine leukemia cell line; assay: In vitro activity against P-388 murine leukemia cell line; assay type: cell-based
Method: (§1) Compounds 3 and 5 described herein were tested in vitro against the following cell lines; P-388 murine leukemia cell line; HT-29 human colon cancer cell line; A-549 human lung adenocarcinoma cell line; and CV-1 monkey kidney cell line (non-cancerous); and the IC50 in μg/ml was determined.

[5] = test system: A-549 human lung adenocarcinoma cell line; assay: In vitro activity against A-549 human lung adenocarcinoma cell line; assay type: cell-based
Method: as §1

[6] = test system: CV-1 monkey kidney cell line; assay: In vitro activity against CV-1 monkey kidney cell line (non-cancerous); assay type: cell-based; conditions: CV-1 monkey kidney (non-cancerous)
Method: as §1

[7] = test system: HT-29 human colon cancer cell line; assay: In vitro activity against HT-29 human colon cancer cell line; assay type: cell-based
Method: as §1

[8] = comparison Compound 1 vs. Compound 6

In the case of COC1=C(C)C(=O)C2=C(C1=O)C(CO)N1C(O)C3CC4C(C1C2N1CCOC41)N3C (stereo not shown) [naphthyridinomycin], the “reactions with DNA” value (DNA) is listed as “reversible reactions”.

With COc1cc2c(cc1O)CCN[C@]21CSC2c3c(OC(C)=O)c(C)c4c(c3C(COC1=O)N1C2C2c3c(cc(C)c(OC)c3O)CC([C@@H]1O)N2C)OCO4 (stereo partly shown) [Compound 2] the “in vivo activity in mice” value [1] was “exceedingly potent activity in vivo”.

For COc1c(C)cc2c(c1O)C1NC(C2)[C@H](O)N2C3COC(=O)[C@]4(CSC(c5c(OC(C)=O)c(C)c6c(c53)OCO6)C12)NCCc1c4[nH]c2ccccc12 (stereo partly shown) [Compound 6], the inhibition at 2.5 µg/mL (L1210 leukemia cells; at 2.5 μg/ml) was 90%, the “activity vs. M-5076 ovarian sarcoma” value (M-5076 ovarian sarcoma; mice) was “slightly active” and the “activity vs. MX-1 human mammary carcinoma xenograft” value ([2]; mice) was “slightly active”. For the same compound, the “in vivo activity in mice” value [1] was “highly active in vivo in mice”, the “T/C vs. P-388” value (P-388 leukemia cells; 25 μg/kg day) was over 265 and the “survivors, P-388” value (P-388 leukemia cells; 25 μg/kg day) was 2/6. For the same compound, the “activity vs. P-388 compared with Compound 1” value (P-388 leukemia cells; comparison Compound 6 vs. Compound 1) was “more effective than Compound 1” and the “T/C vs. LX-1” value ([3]; 50 μg/kg, mice) was 200.

In the case of COc1cc2c(cc1O)CCN[C@]21CSC2c3c(OC(C)=O)c(C)c4c(c3C(COC1=O)N1C2C2NC(Cc3cc(C)c(OC)c(O)c32)[C@@H]1O)OCO4 (stereo partly shown) [Compound 1], the “T/C vs. M-5076” value (M-5076 ovarian sarcoma; 12.5 μg/kg) is reported as 204, the “survivors, M-5076” value (M-5076 ovarian sarcoma; 12.5 μg/kg) is reported as 5/10 and the “activity vs. M-5076 compared with Compound 6” value (M-5076 ovarian sarcoma; [8]) is reported as “more active”. For the same compound, the “T/C vs. Lewis lung” value (Lewis lung carcinoma; 25 μg/kg) was 0.00, the “activity vs. Lewis lung compared with Compound 6” value (Lewis lung carcinoma; [8]) was “more active” and the “T/C vs. MX-1” value ([2]; 37.5 μg/kg) was 0.05. The “activity vs. MX-1 compared with Compound 6” value [2, 8] was “more active”, the “in vivo activity in mice” value [1] was “exceedingly potent activity in vivo” and the “T/C vs. P-388” value (P-388 leukemia cells; 12.5 μg/kg day) was 190. For the same compound, the “survivors, P-388” value (P-388 leukemia cells; 12.5 μg/kg day) was 1/6, the “T/C vs. LX-1” value ([3]; 25 μg/kg) was 0.00 and the “activity vs. LX-1 compared with Compound 6” value [3, 8] was “more active”. For the same compound, the “T/C vs. B-16” value (B-16 melanoma; 12.5 μg/kg) was 253 and the “activity vs. B-16 compared with Compound 6” value (B-16 melanoma; [8]) was “more active”.

For Et 743 N^12 -Oxide [Compound 5], the “IC50 against P-388” value [4] was 1 ng/mL, the “IC50 against A-549” value [5] was 2.5 ng/mL and the “IC50 against CV-1” value [6] was 2.5 ng/mL. For the same compound, the “IC50 against HT-29” value [7] was 2.5 ng/mL.

For COC1=C(C)C(=O)C2=C(C1=O)C1C3CC4=C(C(=O)C(OC)=C(C)C4=O)C(CNC(=O)C(C)=O)N3C(C#N)C(C2)N1C (stereo not shown) [saframycin A], the “reactions with DNA” value (DNA) is given as “reversible reactions”.

In the case of COc1c(C)cc2c(c1O)C1C3C4SC[C@]5(NCCc6c5[nH]c5ccccc65)C(=O)OCC(c5c6c(c(C)c(OC(C)=O)c54)OCO6)N3[C@@H](O)C(C2)N1C (stereo partly shown) [Compound 7], the inhibition at 5 µg/mL (L1210 leukemia cells; at 5.0 μg/ml) is reported as 90%.

With COc1cc2c(cc1O)CCN[C@]21CSC2c3c(OC(C)=O)c(C)c4c(c3C(COC1=O)N1C2C2c3c(cc(C)c(OC)c3O)CC([C@@H]1O)N2C=O)OCO4 (stereo partly shown) [Compound 3, N^12 -Formyl Et 729] the IC50 ([4]; Mus musculus, P388) was 0.5 ng/mL (≈ 0.644 nM), the IC50 ([5]; A549) was 2 ng/mL (≈ 2.58 nM) and the IC50 ([6]; Primates) was 5 ng/mL (≈ 6.44 nM). For the same compound, the IC50 [7] was 2 ng/mL (≈ 2.58 nM).
